Data on 19 molecules can be found in patent publication US5126341A, “Anti-inflammatory 1,8-naphthyridin-2-one derivatives” (Kyowa Hakko Kogyo Co., Ltd., priority 1990, dated 1992).

Where two headings read alike, the source gives them in different places.

The test system of data set [1] is zymosan-induced paw edema. Description: Effect on zymosan-induced paw edema. The data set is classed as in vivo, male Wistar rats. Particulars: rat, 100 mg/kg p.o., 1 hour before 1% zymosan; paw volume 4 hours after injection. As to the method:
b) Effect on zymosan-induced paw edema
The experiment was carried out in the same manner as in the carrageenin-induced paw edema test except that 1% zymosan (Zymosan A®; Sigma Chemical Co.) was used in place of 1% carrageenin and the right hind paw volume was measured 4 hours after the injection of the edema-inducing substance instead of 3 hours. The swelling rate and the suppression rate were calculated by equation 1 and equation 2, respectively.

Data set [2] deals with Type III allergic reaction-induced pleurisy. Put plainly: Effect on Type III allergic reaction-induced pleurisy. The data set is classed as in vivo, male Wistar rats. To be noted: po, 4.5 h, rat, 100 mg/kg p.o., four and a half hours after induction of pleurisy. How it is done: d) Effect on Type III allergic reaction-induced pleurisy
IgG was purified from rabbit anti-OA serum prepared in advance by the method of Koda et al. [Folia Pharmacol., Japon 66, 237, (1970)] in the following manner.
A saturated solution of ammonium sulfate (half volume of the serum) was added to the anti-OA serum, and the mixture was left for one hour at 4° C. The precipitate was taken by centrifugation (3,000 rpm, 30 min, 4° C.) and dissolved in phosphate buffered saline of Dulbecco. Then, ammonium sulfate fractionation was carried out three times in the same manner as above, whereby a purified IgG fraction was obtained.
Male Wistar rats weighing 225-250 g were pre-bred for several days and fasted overnight prior to the experiment The test compound (100 mg/kg) was orally administered to the animals, and after 30 minutes, IgG of rabbit anti-OA (0.2 ml, 5 mg protein/ml) was injected into the pleural cavity of the animals under anesthesia with ether. Thirty minutes after the injection of IgG, OA (albumin egg grade III; Sigma Chemical Co.) was intravenously injected into the animals as an inducer of pleurisy. After two hours, Evans Blue (25 mg/kg) was intravenously injected, and four and a half hours after the induction of pleurisy, the animals were killed by bleeding.
Then, an exudate in the pleural cavity was obtained, and the volume of the exudate was measured. The pleural cavity was rinsed with 5 ml of physiological saline and the rinsings were added to the exudate. The number of infiltrated cells in the mixture was counted and the volume of the dye in the mixture was determined by the absorption at 625 nm [Agent Actions., 25, 326 (1988)]. The suppression rates for the volume of the exudate, the number of infiltrated cells and the volume of the dye in the pleural cavity were calculated by the following equation 3. [formula]
S.V: the value obtained with the group administered with the test compound and in which pleurisy is induced
N.V: the value obtained with the group in which pleurisy is not induced
P.V: the value obtained with the group administered with no test compound and in which pleurisy is induced

In data set [3] the test system is male dd-mice. Particulars: mouse, in vivo, 10080 min; for Acute toxicity (MLD, Minimum Lethal Dose) i.p.: ip; for Acute toxicity (MLD, Minimum Lethal Dose) p.o.: po. How it is done:
The test compounds were orally or intraperitoneally administered to male dd-mice weighing 20 to 25 g. MLD (Minimum Lethal Dose) was determined by observing the mortality for seven days after the administration.

Data set [4] concerns carrageenin-induced paw edema. Put plainly: Effect on carrageenin-induced paw edema. The data set is classed as in vivo, male Wistar rats. Particulars: po; rat, 100 mg/kg p.o., 1 hour before 1% carrageenin; paw volume 3 hours after injection; read-out: Suppression rate for paw swelling, (a) carrageenin-induced edema. How it is done:
a) Effect on carrageenin-induced paw edema
Male Wistar rats weighing 150 to 160 g (n=3-5) were used in the experiment. After the right hind paw volume was measured with the plethysmograph (TK-101; Unicom Co., Ltd.), the test compound (100 mg/kg) was orally administered. After one hour, 0.1 ml of 1 % carrageenin (λ-carrageenin; PICNIN-A®, Zushi Kagaku Co., Ltd.) was subcutaneously injected into the right hind paw footpad. Three hours after the injection of carrageenin, the right hind paw volume was measured and the swelling rate was determined by the following equation 1. [formula]
Vt: the right hind paw volume measured 3 hours after the injection of carrageenin
Vo: the right hind paw volume measured prior to the injection of carrageenin
The suppression rate was calculated by the following equation 2. [formula]
Swt: the swelling rate of the group administered with the test compound
Swc: the swelling rate of the control group administered with no test compound
In general terms: Carrageenan injected into the paw causes an acute inflammation.

Data set [5] relates to arachidonic acid-induced paw edema. Description: Arachidonic acid-induced paw edema. The data set is classed as in vivo, male Wistar rats. Particulars: rat, 100 mg/kg p.o., 1 hour before 0.5% arachidonic acid; paw volume one hour after injection. How it is done: c) Arachidonic acid-induced paw edema
The experiment was carried out in the same manner as in the carrageenin-induced paw edema test except that 0.5% arachidonic acid was used in place of 1% carrageenin and the right hind paw volume was measured one hour after the injection of the edema-inducing substance instead of 3 hours. The swelling rate and the suppression rate were calculated by equation 1 and equation 2, respectively.

[6] abbreviates: Evans Blue 25 mg/kg i.v., absorption at 625 nm, read-out: Suppression rate, volume of dye in the exudate.
Where [7] appears, read: read-out: Suppression rate, volume of exudate.
Where [8] appears, read: read-out: Suppression rate, number of infiltrated cells in the exudate.

As to `CCCCNC(=O)c1c(O)c2cccnc2n(-c2ccccc2)c1=O` [Compound 1, N-(n-Butyl)-4-hydroxy-2-oxo-1-phenyl-1H-1,8-naphthyridine-3-carboxamide], the “Suppression rate for paw swelling, (b) zymosan-induced edema” value in data set [1] is 20.5%.

Regarding `CNC(=O)c1c(O)c2cccnc2n(-c2ccccc2)c1=O` [Compound 2, 4-Hydroxy-N-methyl-2-oxo-1-phenyl-1H-1,8-naphthyridine-3-carboxamide], the results for the inhibition in vivo at 100 mg/kg in data set [2] (setting [6]) and in data set [2] (setting [7]) were 28.3% and 27.2%, respectively.

Take `CN(C)NC(=O)c1c(O)c2cccnc2n(-c2ccccc2)c1=O` [Compound 6, N-Dimethylamino-4-hydroxy-2-oxo-1-phenyl-1H-1,8-naphthyridine-3-carboxamide]: in data set [3], the “Acute toxicity (MLD, Minimum Lethal Dose) i.p.” value was more than 100 mg/kg and the “Acute toxicity (MLD, Minimum Lethal Dose) p.o.” value is listed as more than 300 mg/kg. The “Suppression rate for paw swelling, (b) zymosan-induced edema” value in data set [1] is 27.3%. In data set [4], the inhibition in vivo at 100 mg/kg was 31.7%.

Consider `CN(C)CCNC(=O)c1c(O)c2cccnc2n(-c2ccccc2)c1=O` [Compound 7, N-(2-Dimethylaminoethyl)-4-hydroxy-2-oxo-1-phenyl-1H-1,8-naphthyridine-3-carboxamide], for which, in data set [3], the “Acute toxicity (MLD, Minimum Lethal Dose) i.p.” value was more than 100 mg/kg and the “Acute toxicity (MLD, Minimum Lethal Dose) p.o.” value was more than 300 mg/kg. Also, the inhibition in vivo at 100 mg/kg in data set [4] came to 23.2%.

For the molecule `O=C(Nc1cccc(Cl)c1)c1c(O)c2cccnc2n(-c2ccccc2)c1=O` [Compound 8, N-(3-Chlorophenyl)-4-hydroxy-2-oxo-1-phenyl-1H-1,8-naphthyridine-3-carboxamide], the inhibition in vivo at 100 mg/kg in data set [2] (setting [8]) is 21.7%.

For `Cc1cccc(NC(=O)c2c(O)c3cccnc3n(-c3ccccc3)c2=O)c1` [Compound 9, 4-Hydroxy-N-(3-methylphenyl)-2-oxo-1-phenyl-1H-1,8-naphthyridine-3-carboxamide], the “Acute toxicity (MLD, Minimum Lethal Dose) i.p.” value in data set [3] was more than 100 mg/kg. Also, the “Acute toxicity (MLD, Minimum Lethal Dose) p.o.” value in data set [3] is listed as more than 300 mg/kg. Also, the figures for the inhibition in vivo at 100 mg/kg in data set [2] (setting [8]), in data set [2] (setting [7]) and in data set [4] were 28.5%, 27.3% and 25.2%, respectively.

As to `O=C(Nc1cccc([N+](=O)[O-])c1)c1c(O)c2cccnc2n(-c2ccccc2)c1=O` [Compound 11, 4-Hydroxy-N-(3-nitrophenyl)-2-oxo-1-phenyl-1H-1,8-naphthyridine-3-carboxamide], in data set [3], the “Acute toxicity (MLD, Minimum Lethal Dose) i.p.” value is reported as more than 100 mg/kg and the “Acute toxicity (MLD, Minimum Lethal Dose) p.o.” value is on record as more than 300 mg/kg. In addition, the inhibition in vivo at 100 mg/kg in data set [2] (setting [6]) was determined as 37.2%. In data set [2] (setting [7]), the inhibition in vivo at 100 mg/kg is 22.1%.

On to `O=C(Nc1nccs1)c1c(O)c2cccnc2n(-c2ccccc2)c1=O` [Compound 12, 4-Hydroxy-2-oxo-1-phenyl-N-(2-thiazolyl)-1H-1,8-naphthyridine-3-carboxamide], for which the inhibition in vivo at 100 mg/kg in data set [2] (setting [6]) was 24%.

Regarding `O=C(Nc1nc2ccccc2s1)c1c(O)c2cccnc2n(-c2ccccc2)c1=O` [Compound 13, N-(2-Benzothiazolyl)-4-hydroxy-2-oxo-1-phenyl-1H-1,8-naphthyridine-3-carboxamide], the values for the inhibition in vivo at 100 mg/kg in data set [2] (setting [6]) and in data set [2] (setting [7]) were 25.8% and 28.9%, respectively.

Consider `COc1ccc(NC(=O)c2c(O)c3cccnc3n(-c3ccccc3)c2=O)cc1` [Compound 16, 4-Hydroxy-N-(4-methoxyphenyl)-2-oxo-1-phenyl-1H-1,8-naphthyridine-3-carboxamide], for which the inhibition in vivo at 100 mg/kg in data set [2] (setting [8]) was determined as 25.4%.

As for `Cc1ccc(NC(=O)c2c(O)c3cccnc3n(-c3ccccc3)c2=O)cc1` [Compound 17, 4-Hydroxy-N-(4-methylphenyl)-2-oxo-1-phenyl-1H-1,8-naphthyridine-3-carboxamide], the inhibition in vivo at 100 mg/kg in data set [2] (setting [8]) stood at 21.5%; in data set [2] (setting [7]) it was 22.4%.

As for `COc1cccc(NC(=O)c2c(O)c3cccnc3n(-c3ccccc3)c2=O)c1` [Compound 18, 4-Hydroxy-N-(3-methoxyphenyl)-2-oxo-1-phenyl-1H-1,8-naphthyridine-3-carboxamide], the inhibition in vivo at 100 mg/kg is 22.1% in data set [2] (setting [8]) and 26.9% in data set [2] (setting [7]).

Take `COc1ccccc1NC(=O)c1c(O)c2cccnc2n(-c2ccccc2)c1=O` [Compound 19, 4-Hydroxy-N-(2-methoxyphenyl)-2-oxo-1-phenyl-1H-1,8-naphthyridine-3-carboxamide]: in data set [3], the “Acute toxicity (MLD, Minimum Lethal Dose) i.p.” value was more than 100 mg/kg and the “Acute toxicity (MLD, Minimum Lethal Dose) p.o.” value is recorded as more than 300 mg/kg. Besides, in data set [2] (setting [8]), the inhibition in vivo at 100 mg/kg turned out to be 26.8%. Also, the inhibition in vivo at 100 mg/kg in data set [4] is 34.2%.

In the case of `O=C(NC1CCN(Cc2ccccc2)CC1)c1c(O)c2cccnc2n(-c2ccccc2)c1=O` [Compound 21, N-(1-Benzylpiperidin-4-yl)-4-hydroxy-2-oxo-1-phenyl-1H-1,8-naphthyridine-3-carboxamide], the inhibition in vivo at 100 mg/kg in data set [2] (setting [6]) was 50.2%; in data set [2] (setting [8]) it was 22.1%; in data set [2] (setting [7]) it was 32.4%.

As for `O=C(NC1=NCCS1)c1c(O)c2cccnc2n(-c2ccccc2)c1=O` [Compound 22, 4-Hydroxy-2-oxo-1-phenyl-N-(thiazolin-2-yl)-1H-1,8-naphthyridine-3-carboxamide], the “Acute toxicity (MLD, Minimum Lethal Dose) i.p.” value in data set [3] was more than 100 mg/kg. For the same molecule, in data set [3], the “Acute toxicity (MLD, Minimum Lethal Dose) p.o.” value is on record as more than 300 mg/kg. Further, the inhibition in vivo at 100 mg/kg in data set [2] (setting [6]) turned out to be 51%; in data set [2] (setting [8]), 34.6%; in data set [2] (setting [7]), 89.2%. For the same molecule, the “Suppression rate for paw swelling, (c) arachidonic acid-induced edema” value in data set [5] came out at 33.4%.

Turning to `O=C(Nc1cnccn1)c1c(O)c2cccnc2n(-c2ccccc2)c1=O` [Compound 23, 4-Hydroxy-2-oxo-1-phenyl-N-(pyrazin-2-yl)-1H-1,8-naphthyridine-3-carboxamide], the “Acute toxicity (MLD, Minimum Lethal Dose) i.p.” value in data set [3] is recorded as more than 100 mg/kg. In data set [3], the “Acute toxicity (MLD, Minimum Lethal Dose) p.o.” value is recorded as more than 300 mg/kg. The inhibition in vivo at 100 mg/kg in data set [2] (setting [6]) was determined as 43.2%; in data set [2] (setting [8]), 26.7%; in data set [2] (setting [7]), 24%; in data set [4], 22.7%. Moreover, in data set [1], the “Suppression rate for paw swelling, (b) zymosan-induced edema” value was 22.2%.

For the molecule `CCc1nnc(NC(=O)c2c(O)c3cccnc3n(-c3ccccc3)c2=O)s1` [Compound 24, 4-Hydroxy-2-oxo-1-phenyl-N-(5-ethyl-1,3,4-thiadiazol-2-yl)-1H-1,8-naphthyridine-3-carboxamide], the inhibition in vivo at 100 mg/kg amounted to 32.1% in data set [2] (setting [6]) and 29.7% in data set [2] (setting [7]).

For `O=C(NN1CCOCC1)c1c(O)c2cccnc2n(-c2ccccc2)c1=O` [Compound 27, 4-Hydroxy-N-morpholino-2-oxo-1-phenyl-1H-1,8-naphthyridine-3-carboxamide], the inhibition in vivo at 100 mg/kg in data set [2] (setting [6]) is 23.6%.

In the case of `O=C(NCc1cccnc1)c1c(O)c2cccnc2n(-c2ccccc2)c1=O` [Compound 29, 4-Hydroxy-2-oxo-1-phenyl-N-(3-pyridylmethyl)-1H-1,8-naphthyridine-3-carboxamide], in data set [3], the “Acute toxicity (MLD, Minimum Lethal Dose) i.p.” value is more than 100 mg/kg and the “Acute toxicity (MLD, Minimum Lethal Dose) p.o.” value is on record as more than 300 mg/kg. For the same molecule, the “Suppression rate for paw swelling, (c) arachidonic acid-induced edema” value in data set [5] is 33.3%.
